“Also recorded” adds a separate entry of the source.
Legend:
[1] = test system: Madin-Darby Canine Kidney (MDCK) cells; test: In vitro BBB tight junction model (Transwell, TEER, fluorescence antibody); type: cell-based
Description: The labelled components are Transwell chemotaxis chamber; upper chamber; porous membrane and lower chamber. Transwell culture chambers (pore size: 0.8 μm). Madin-Darby Canine Kidney (MDCK) cells are epithelial cells. TEER: transepithelial/transendothelial electrical resistance. Fluorescence Ab: Alexa Fluo® 488; donkey anti-rat IgG (H+L). Fluorescence was measured in the lower chamber in about 120 minutes.

[2] = test system: Raji's-Luc/GFP human B-cell lymphoma cells; test: Lym-1 CAR T cell delivery in intracranial Raji lymphoma xenografts (survival); type: in vivo, NSG mice; details: IV Lym-1 CAR T (5×10e6) + IC NEO100 (0.3% v/v=492 μM); control mice died within 15-20 days; P=0.0029
Description: 50,000 (5×10^4) human B-cell lymphoma cells, Raji's-Luc/GFP, were injected intracranially into NSG mice.
5 days post the tumor cells injection, the optical imaging was performed to confirm the tumor uptake (100% tumor uptake).
There were 3 experimental groups: (1) Control; (2) IV CAR T (5×10e6); (3) IV CAR T (5×10e6)+IC NEO100 (0.3% v/v=492 μM)
Body weight was monitored for the physical condition of the mice during the treatment. Tumor growth was monitored by optical imaging.

GL261 mouse glioma [3] = test: NEO100-mediated human CAR T cell delivery to brain and tumor (CD3 IHC); type: in vivo
Description: 2-million CD19 and Lym-1 human CAR T cells that were suspended in 0.9% saline working solution to be used for the IV injection with and without intracardiac NEO100.
Preparation of the working solution for intracardiac injection of NEO100: 3% NEO100 suspended in 0.9% saline.
40 μl 3% NEO100 in saline was injected slowly to complete intracardiac application. Direct cell injection into the heart could cause local microinfarctions if the cells are clumpy during injection, hemopericardium and death as a consequence. This is why ultrasound guided injections with a small 30 G needle is important to minimize these potential adverse effects, (1) enabling the visualization of the needle tract to ensure that the needle enters the left ventricle only, and (2) subsequent monitoring of the heart through not only ECG but visualization of heart wall function after the injection. The fine gauge of the needle ensures that the cells are not clumpy when the cells are injected through intracardiac puncture.
Immediate after the completion of NEO100 injection, 2 million human CAR T cells in 40 μl PBS were injected through tail vein catheter that pre-primed with saline solution. To avoid the possible adverse effects mentioned above by direct cell injection through intracardiac application, we set up 2-step procedures for the study.
Step 1: 40 μl 3% NEO100 in saline was injected slowly to complete intracardiac application. This procedure allows NEO100 to exert the function of BBB disruption.
Step 2: 2-million CAR T cells were injected by IV through tail vein catheter.
Brain Perfusion—In order to rule out the residue left over inside the blood vessel after euthanizing, the testing animals were perfused by 10 ml 0.9% normal saline solution through left ventricle to flush out the blood. […] Confocal Imaging—[…] fresh frozen sections were made by cryostasis machine and pasted on microslide. Coverslip was mounted on the brain section by DAPI mounting medium before Confocal examination. […]

[4] = test system: recurrent malignant gliomas; details: intranasal delivery, cited from earlier work
GL261 mouse glioma [5] = test: Anti-mouse PD-1 antibody therapeutic efficacy (survival) in intracranial syngeneic mouse glioma; type: in vivo, C57 BL/6 mice
Description: 100,000 GL261 mouse glioma cells were injected intracranially to immune competent mice, C57 BL/6. 7 days post the injection, the mice were randomly divided into 4 experimental groups, and initiated the treatment at the same day. • Group 1. Control: IV and Intracardiac injection of 40 μl Saline Solution (5). • Group 2. Antibody treated mice: IV 40 μl Anti-mouse PD1 antibody at the dose of 2.5 • mg/kg (5). • Group 3. NEO100 treated mice: Intracardiac injection of 40 μl 5% NEO100 (5). • Group 4. Combination of NEO100 and antibody treated mice: Intracardiac 40 μl 5% NEO100, followed by IV 40 μl Anti-PD1 antibody at the dose of 2.5 mg/kg (6).
Animal survival data were plotted using the Kaplan-Meier method. One-way ANOVA was used for the overall test for differences. Grouped comparisons were performed using the Tukey method of adjusting for multiple comparisons. Logrank (Mantel-Cox) test was applied for the comparison of survival curves. A statistical evaluation result of p<0.05 was considered significant.

U-87 human glioma cells = test: Intracranial glioma model in athymic nu/nu mice (survival); type: in vivo; details: applicant's prior experience; untreated mice about four weeks
Description: Male athymic nu/nu mice (6-8 weeks old) will be employed for this research. Rodent subcutaneous/intracranial glioma model can be established as follows. Six to eight week old athymic nu/nu mice will be anesthetized with intraperitoneal injections of ketamine (80 mg/kg) and xylazine (10 mg/kg). For the intracranial glioma model, the mice are placed into a stereotactic head frame (Harvard Apparatus), and local anesthetic (0.2 cc of 0.25% xylocaine) is injected into the right frontal scalp. A knife blade is used to make a small incision, and a drill bit is used to make a small opening in the right frontal skull at the level of the coronal suture. Glioma cells (1×10^5 cells/10 μl), for example, U-87 human glioma cells, will be loaded into a calibrated Hamilton syringe. The needle tip will be placed precisely into the right frontal lobe of the […], and cells will be slowly injected using a control push from the Hamilton syringe. After the injection is finished, the syringe and needle will be removed, and the wound closed. […]
Brains will be harvested, and tumor size determined. […]

Description for blood-brain-barrier: Brain Perfusion—Before euthanizing, the testing animals was perfused by 0.9% normal saline solution through left ventricle. The brain was removed and buried in OCT, and stored in −80° C. for further analysis.
Ultrasound Guided Intracardiac Puncture—Briefly, the animals were anesthetized using 2% isoflurane gas and fixed on the platform for intracardiac puncture. To penetrate the syringe needle into intercoastal space promptly through skin and muscle layers into the left ventricle under the guidance of ultrasound imaging. An indication of successful insertion of the needle into the left ventricle is the reflux of fresh arterial blood (pink color in contrast to dark red venous blood) into the syringe.
The extravasation of stained albumin from circulation could be visualized.
Different concentration of NE0100 (40 μ1 in 0.9% saline) was tested through intracardiac puncture, followed by immediate intravenous application of 2% Evans Blue (40 μ1 in volume). The brain was removed after perfusion.
Experimental groups include: • IC 2% EB only • IC 20% ethanol+2% EB • IC 20% ethanol+2% EB+5% NEO100 • IC 20% ethanol+5% NEO100, followed by 2% EB tail vein injection • IV 20% ethanol+2% EB+5% NEO100 • IV 20% ethanol+2% EB
The immune competent C57 BL/6 mice was injected with 5% NEO100 (v/v) through intracardiac puncture (IC), followed by intravenous injection of 2% Evans Blue at different time points, such as 0, 5 min, 15 min, 30 min, 1-hour, 2-hour, 3-hour, and 4 hours, post the IC injection.
Intracardiac Injection (IC): 5% NEO100. • 2. Followed by intravenous injection (IV) of 2% EB at different times. • 3. The testing animals were euthanized one hour after the IV injection.

Compound	disturbance of the BBB (Evans Blue uptake into brain) (blood-brain-barrier; NEO100 1:1000 dilution (6.5 mM 40 μl) intracardiac, then 2% Evans Blue IV)	dopamine delivery to the brain (blood-brain-barrier; intracardiac NEO100)	opening of the BBB for antibodies (blood-brain-barrier; intracardiac injection (equivalent to intra-arterial injection for mice))	tight junction in the brain (blood-brain-barrier; intracardiac injection of 5% NEO100 compared to normal brain)	safety of intraarterial administration (blood-brain-barrier; mouse, in vivo)	penetration of fluorescence labelled antibody across in vitro BBB model ([1]; Alexa Fluo 488 donkey anti-rat IgG, fluorescence in lower chamber at about 120 minutes)	TEER (transepithelial/transendothelial electrical resistance) ([1]; NEO100 2 mM)	animal survival (Kaplan Meier) [2]	severe adverse effect or animal death (GL261 mouse glioma [3]; 3% NEO100 intracardiac injection)	penetration of human CAR T cells (anti-CD19 and Lym-1) into the tumor formed inside the brain (GL261 mouse glioma [3]; 40 μl 3% NEO100 intracardiac, then 2 million CAR T cells IV, compared to IV only, 6 h)	CD3 positive cells in the normal parts of brain (GL261 mouse glioma [3]; intracardiac NEO100 plus IV CAR T cells vs IV injection only)	patients achieving 6 month progression-free period ([4]; 140 treated patients)	disease response [4]	side effects from the treatment [4]	disease remission ([4]; several patients)	animal survival, combination (GL261 mouse glioma [5]; 40 μl 5% NEO100 intracardiac followed by anti-PD1 antibody 2.5 mg/kg IV)	animal survival, single agent (GL261 mouse glioma [5]; NEO100 alone (40 μl 5% intracardiac) or anti-PD1 alone (2.5 mg/kg IV))	survival after implantation (U-87 human glioma cells)
C=C(C)[C@@H]1CC=C(CO)CC1 [NEO100, perillyl alcohol]	still effective to disturb the BBB	mediated dopamine delivery through the breached blood-brain-barrier	could open the BBB for antibodies	breached dramatically	safe to administer intraarterially	transiently allow labeled antibodies to transiently cross it; also recorded: enhanced penetration of fluorescence labelled antibody	decreased TEER	survived	does not cause any severe adverse effect or animal death	greatly increase the penetration into the tumor	More CD3 positive cells were found in the normal parts of brain	50%	regression or stabilization of the disease	almost non-existent	≤ 3 years	still alive	all the controls were dead	
Cn1nnc2c(C(N)=O)ncn2c1=O [TMZ, temozolomide]																		up to 8 weeks

Reference: patent US12514828B2, “Methods of permeabilizing the blood brain barrier” (UNIVERSITY OF SOUTHERN CALIFORNIA, priority 2018, dated 2026)
